# According to ChEMBL document CHEMBL3507680, “University of Dundee, Gates Library screen for HepG2 cell viability”:
# Experiment: Human HepG2 cell viability assay in 384 well format
# Assay type: toxicity, cell-based
# Design: dose 125 nL, time 70.5 hour; concentration not given beside the values
# Conditions: HepG2 cells, read-out: Inhibition
row,Compound,cytotoxicity at 70.5 h [%]
1,Cc1noc(CNC(=O)CN(C)c2nc3c(F)cccc3s2)n1,28.5
2,Cc1noc(CNC(=O)CN(C)c2nc3c(C)ccc(C)c3s2)n1,12.2
3,Cc1nccn1-c1ccc(=O)n(CCNC(=O)c2c(F)cccc2Cl)n1,-6.16
4,Cc1nccn1-c1ccc(=O)n(CCNC(=O)c2ccccn2)n1,-6.46
5,Cc1nccn1-c1ccc(=O)n(CCNC(=O)c2cccs2)n1,-11.7
6,COc1ccc(-n2nnc(C(N)=O)n2)cc1,-7.17
7,CN1CCCN(C(=O)c2nnn(-c3ccc(C(F)(F)F)cc3)n2)CC1,-4.86
8,CCC(C)NC(=O)c1nnn(-c2ccc(Br)cc2)n1 (configuration not stated),5.21
9,COCC(C)NC(=O)c1nnn(-c2ccc(Br)cc2)n1 (configuration not stated),10.9
10,O=C(NCC1CCCCC1)c1nnn(-c2ccc(Br)cc2)n1,-6.14
11,O=C(NCC(F)(F)F)c1ccc(-n2cccn2)nn1,5.82
12,COc1ccccc1C(O)Cn1cc(C(=O)NCC2CC2)nn1 (configuration not stated),-2.27
13,Cc1nnc(C2CCN(C(=O)c3ccc4nccnc4c3)CC2)s1,-8.52
14,Cn1c(C(F)(F)F)nn(CCNC(=O)Nc2ccccc2F)c1=O,-7.97
15,Cn1c(C(F)(F)F)nn(CCNC(=O)Nc2ccccc2Cl)c1=O,25.1
16,CC(C)c1nnc(C2CCN(CC(=O)Nc3cccnc3)CC2)o1,-5.94
17,CN(C)S(=O)(=O)N1CCC(c2nnc(C(F)(F)F)o2)CC1,30.8
18,Cn1nc(C2CCN(CC(=O)NC3CC3)CC2)n(-c2ccccc2)c1=O,-8.96
19,O=C(Cn1cccc(S(=O)(=O)N2CCCC2)c1=O)c1ccccc1Cl,-8.77
20,COC(=O)N1CCc2ccccc2C1C(=O)NCc1ccccn1 (configuration not stated),0.0153
21,COC(=O)N1CCc2ccccc2C1C(=O)NCc1ccco1 (configuration not stated),-10.1

row,Compound,cytotoxicity at 70.5 h [%]
1,COC(=O)N1CCc2ccccc2C1C(=O)NCc1cccs1 (configuration not stated),-6.75
2,COC(=O)N1CCc2ccccc2C1C(=O)NCc1ccncc1 (configuration not stated),-3.87
3,COC(=O)N1CCc2ccccc2C1C(=O)NCc1nc(C)no1 (configuration not stated),-7.1
4,O=C(NC1CCN(c2ccc(-c3ccccc3F)nn2)C1)c1cc[nH]n1 (configuration not stated),-12.8
5,O=C(Cn1ccc2ccccc21)Nc1cc(N2CCCC2)ncn1,3.21
6,CCOc1ccccc1NC(=O)Nc1cc(N2CCCC2)ncn1,1.9
7,Cc1cc(=O)n(CCNC(=O)c2ccccc2Cl)cn1,4.36
8,Cc1cc(=O)n(CCNS(=O)(=O)c2cccc(C(F)(F)F)c2)cn1,-8.24
9,Cc1cc(=O)n(CCNS(=O)(=O)c2ccc(F)c(Cl)c2)cn1,-4.51
10,CCc1cc(=O)n(CCNC(=O)Nc2ccc(OC(F)(F)F)cc2)cn1,-3.46
11,Cc1ncn(CCNC(=O)Nc2ccc(F)c(Cl)c2)c(=O)c1C,-3.86
12,O=C(c1ccco1)N(CC(F)(F)F)C1CCOCC1,-7.66
13,O=C(C1=COCCO1)N1CC(Oc2nc3c(C(F)(F)F)cccc3s2)C1,10.3
14,CN(C)C(CNC(=O)NCCOc1ccccc1)c1ccco1 (configuration not stated),13
15,COc1ccc(OC)c(-c2cc(C(=O)NCC3(CO)CC3)n(C)n2)c1,-5.05
16,NC(=O)Cc1csc(NC(=O)C2CSCCC(=O)N2)n1 (configuration not stated),1.67
17,O=C(O)CC(CC(=O)NCCc1cccs1)c1cccs1 (configuration not stated),3.06
18,O=C(O)CC(CC(=O)N(Cc1ccsc1)C1CC1)c1cccs1 (configuration not stated),20.8
19,Cc1ccc(S(=O)(=O)NCCc2ccoc2)s1,-9.94
20,N#Cc1cccnc1OC1CCN(S(=O)(=O)c2ccc(F)c(Cl)c2)CC1,-14.2
21,N#Cc1ccc(OC2CCN(C(=O)c3cncc(Br)c3)CC2)nc1,-9.99

row,Compound,cytotoxicity at 70.5 h [%]
1,N#Cc1ccc(OC2CCN(C(=O)Cc3cccs3)CC2)nc1,-0.57
2,O=C(CCC(=O)N1CCC(Oc2ncccc2Br)CC1)c1ccccc1,-9.39
3,Cc1cccc(OC2CCN(C(=O)Cn3ccc4ccccc43)CC2)n1,-6.3
4,Cc1cccc(OC2CCN(C(=O)c3ccc4ncsc4c3)CC2)n1,0.229
5,O=C(Nc1cnc(Oc2ccccc2)nc1)C1CC1,-2.39
6,O=C(c1ccccc1F)N1CCN(c2ccc(-n3cccc3)nn2)CC1,-8.46
7,O=C(c1cccnc1)N1CCN(c2ccc(-n3cccc3)nn2)CC1,0.575
8,Cc1ccc(S(=O)(=O)NCCNc2cc(-n3cccc3)ncn2)c(C)c1,-0.584
9,CS(=O)(=O)N1CCCC12CCCN(C(=O)c1ccnnc1)C2 (configuration not stated),-11.3
10,COCC1c2nnn(CC3CC3)c2CCN1C(=O)c1sccc1C (configuration not stated),-11.5
11,COCC1c2nnn(CC3CC3)c2CCN1C(=O)c1cc(C)on1 (configuration not stated),-12.7
12,Cc1ccoc1C(=O)N1CCc2ncnc(-c3cnn(C)c3)c2CC1,24.7
13,Cc1noc(C2CCC3(CCN(C(=O)c4ccnnc4)CC3)O2)n1 (configuration not stated),-0.131
14,CC(=O)N1CCc2ncc(CNC(=O)C3CCC3)n2CC1,-2.29
15,CCS(=O)(=O)N1Cc2ncn(CC3CC3)c2C(COC)C1 (configuration not stated),-0.679
16,CCN1CCc2cc(C(=O)N(C)C)c(NCC3CC3)nc2CC1,2.86
17,CN1CC2(CCN(C(=O)C3CCC3)CC2)COc2ccccc2S1(=O)=O,-4.42
18,CCc1ncncc1C(=O)N1CCCC(n2nc(C)nc2C)C1 (configuration not stated),-1.23
19,Cc1cc(C)n(CC2CCCN2CCc2ccccn2)n1 (configuration not stated),1.45
20,Cc1ccc(C)n1C(C)C(=O)N1CCCN(Cc2cscn2)CC1 (configuration not stated),-0.61
21,Cc1cnc(CN2CCOC(Cn3nc(C)cc3C)C2)cn1 (configuration not stated),13.7

row,Compound,cytotoxicity at 70.5 h [%]
1,Cc1nc(C2CCCN2CC(=O)NCCOc2ccc(F)cc2)no1 (configuration not stated),47.6
2,O=C(NCc1ccncc1)Nc1cc(C(F)(F)F)c[nH]c1=O,-2.18
3,Cc1cc(C)c(CNC(=O)NCC2COCCO2)c(=O)[nH]1 (configuration not stated),-4.78
4,Cn1cc(CCNCc2cc(Cl)c3c(c2)OCCO3)cn1,-2.02
5,Cc1cc(C)n(CC2CN(Cc3nnc(C)o3)CCO2)n1 (configuration not stated),-3.59
6,CCc1nnc2n1CCN(C(=O)c1cc(Cl)c[nH]1)C2,-1.1
7,O=C(c1ccccc1N1CCOCC1)N1CCCC(n2ccnc2)C1 (configuration not stated),-6.72
8,Cc1ccc(NC2CCN(C(=O)c3ccc(C)o3)CC2)nn1,-0.446
9,Cc1ccc(NC2CCN(C(=O)Cc3c(C)noc3C)CC2)nn1,-2.99
10,O=C(c1ccc(N2CCOCC2)nc1)N1CCCC(n2ccnc2)C1 (configuration not stated),-3.02
11,Cc1ccc(NC2CCN(C(=O)c3cc(C)no3)CC2)nn1,0.395
12,COc1ccc(CN2CCC3(CC(=O)N(c4cccc(F)c4)C3)C2)cc1 (configuration not stated),-10.4
13,O=C(Nc1cnccn1)[C@H]1CC[C@@H]2[C@@H](CCN2Cc2ccoc2)O1,25.7
14,Cc1ccc2c(n1)N(CCn1cccn1)CCN(S(C)(=O)=O)C2,27.2
15,O=C(NCc1cnc2n1CCN(CC1CC1)C2)C1CC1,28
16,CN1CC2(CCN(CC3CC3)CC2)COc2ccccc2S1(=O)=O,-1.33
17,O=C(NCc1cccs1)[C@H]1CC[C@@H]2[C@@H](CCN2Cc2ccoc2)O1,2.32
18,COCC(=O)N1CCN(CCn2cccn2)c2nc(C)ccc2C1,0.00132
19,CN(C)CCOCC1CN(Cc2ccccn2)Cc2nnn(C)c21 (configuration not stated),0.965
